Test [1] relates to 95 Lla (RNA, riboswitch) GGGAAAAUAGAAUAAAUACUCCACCGGGAGUUAAAUCGUAUGAACGAUUGUUUGCAUUUCAGUAGGUCUGAGAAGAAAUGUAGAUAGUCGUUCUU
Briefly: in-line probing. To be noted: 20 mM Mg2+, 100 mM K+, 50 mM Tris-HCl pH 8.3 (at 23 °C); for binding: highest tested 10 mM; for apparent KD: ~48 h.

Test [2] has as its system 147 Lla (RNA, riboswitch) AAAAUAGAAUAAAUACUCCACCGGGAGUUAAAUCGUAUGAACGAUUGUUUGCAUUUCAGUAGGUCUGAGAAGAAAUGUAGAUAGUCGUUCUUUUUUUAGCUGAGGAGGCGAAAAUGACUUGGCUAUAUCUACUAAUAGCAGGAAUUU
Briefly: in vitro transcription termination assay. To be noted: 1.8 mM NTPs, 37 °C; for binding: highest tested 10 mM; for EC50: E. coli RNA polymerase, 8 min, co-transcriptional, full-length fraction.

Test [3] relates to 95 Lla M2 (U67A) (RNA, riboswitch) GGGAAAAUAGAAUAAAUACUCCACCGGGAGUUAAAUCGUAUGAACGAUUGUUUGCAUUUCAGUAGGACUGAGAAGAAAUGUAGAUAGUCGUUCUU
Briefly: in-line probing. Particulars: 20 mM Mg2+, 100 mM K+; 50 mM Tris-HCl pH 8.3 (at 23 °C); highest tested 10 mM.

Test [4] has as its system 95 Lla M1 (G66C) (RNA, riboswitch) GGGAAAAUAGAAUAAAUACUCCACCGGGAGUUAAAUCGUAUGAACGAUUGUUUGCAUUUCAGUAGCUCUGAGAAGAAAUGUAGAUAGUCGUUCUU
Briefly: in-line probing. Particulars: 20 mM Mg2+, 100 mM K+; 50 mM Tris-HCl pH 8.3 (at 23 °C); highest tested 10 mM.

Test [5] concerns 92 Rti (RNA, riboswitch) GGGACAAUUGAAGCAUCUGCCGCCGGGUAGACCAAGAACAAAGCAUGUGCGCCCCUAUCGUUAGGCCAUAGAAGAUAGGGGAAAGCGCAUGC
Kind of test: in-line probing. Particulars: 20 mM Mg2+, 100 mM K+, 50 mM Tris-HCl pH 8.3 (at 23 °C), ~48 h.

The subject of test [6] is GGAM-3 (Bub 73) (RNA, mRNA element) GGGAUCCAUCCGGGGUACCGCUCCCGCAAGUUGAUCGCGCUCGGUACAAGCGCGAAAUCAGGAGCGGUACGCC
Kind of test: in-line probing and in vitro transcription. To be noted: 20 mM Mg2+, 100 mM K+; initial experiments, data not shown; highest concentration not stated.

Test [7] has as its system GGAM-3 (Bub 59) (RNA, mRNA element) GGGAUCCAUCCGGGGUACCGCUCCCGCAAGUUGAUCGCGCUCGGUACAAGCGCGAAAUC
Briefly: in-line probing and in vitro transcription. Particulars: 20 mM Mg2+, 100 mM K+; initial experiments, data not shown; highest concentration not stated.

Test [8] deals with GGAM-4 (Msu 80) (RNA, mRNA element) GGGAAACUAAGGUCCGCCCGCUAGGCCGGCCGCGCCUCGACGCGCCGGCUCUCGUCAAUCGAACACGCGCGGUACCCAUG
Briefly: in-line probing and in vitro transcription. Particulars: 20 mM Mg2+, 100 mM K+; initial experiments, data not shown; highest concentration not stated.

Test [9] concerns GGAM-4 (Msu 98) (RNA, mRNA element) GGGCGACAGCCUCUCCUCGCGAAACUAAGGUCCGCCCGCUAGGCCGGCCGCGCCUCGACGCGCCGGCUCUCGUCAAUCGAACACGCGCGGUACCCAUG
Kind of test: in-line probing and in vitro transcription. Particulars: 20 mM Mg2+, 100 mM K+; initial experiments, data not shown; highest concentration not stated.

Test [10] deals with GGAM-6 (Sru 111) (RNA, mRNA element) GGGUCAAUACUCGUAUCGGACGGCAAGCAAUCGCCUGCUUGCCAGAUAAGGUGUCCAUAGACACUGGAACGGGUUAUUCAGGCCAGAUAAGAUCGCAUUCUUAUCUGGCCU
Briefly: in-line probing and in vitro transcription. Particulars: 20 mM Mg2+, 100 mM K+; initial experiments, data not shown; highest concentration not stated.

Test [11] deals with 95 Lla M3 (G72C) (RNA, riboswitch) GGGAAAAUAGAAUAAAUACUCCACCGGGAGUUAAAUCGUAUGAACGAUUGUUUGCAUUUCAGUAGGUCUGACAAGAAAUGUAGAUAGUCGUUCUU
Briefly: in-line probing. Particulars: 20 mM Mg2+, 100 mM K+; 50 mM Tris-HCl pH 8.3 (at 23 °C); highest tested 10 mM.

The subject of test [12] is GGAM-5 (Nov 77) (RNA, mRNA element) GGGUGGAUGCGCCGAGAAUAGAGUAGCAGGGUGGUGUCUCCUGCGCCCGUAAGGGUUCUUCCCAGCCACGGCGUCAA
Briefly: in-line probing and in vitro transcription. Particulars: 20 mM Mg2+, 100 mM K+; initial experiments, data not shown; highest concentration not stated.

In test [13] the test system is GGAM-2 (Cfi 63) (RNA, mRNA element) GGAAUGGUACGGUCGUACCAGAACCGUGCGCGGGACGGCGGACCUGACACCCGGCGCGCAGCG
Kind of test: in-line probing and in vitro transcription. To be noted: 20 mM Mg2+, 100 mM K+; initial experiments, data not shown; highest concentration not stated.

In test [14] the test system is GGAM-2 (Cfi 80) (RNA, mRNA element) GGUCGCAGGAAUGGUACGGUCGUACCAGAACCGUGCGCGGGACGGCGGACCUGACACCCGGCGCGCAGCGGUCGCCCACC
Briefly: in-line probing and in vitro transcription. Particulars: 20 mM Mg2+, 100 mM K+; initial experiments, data not shown; highest concentration not stated.

The subject of test [15] is 95 Lla M4 (G62C) (RNA, riboswitch) GGGAAAAUAGAAUAAAUACUCCACCGGGAGUUAAAUCGUAUGAACGAUUGUUUGCAUUUCACUAGGUCUGAGAAGAAAUGUAGAUAGUCGUUCUU
Kind of test: in-line probing. Particulars: 20 mM Mg2+, 100 mM K+; 50 mM Tris-HCl pH 8.3 (at 23 °C); up to 10 mM; folding differs from wt.

Structures are written as SMILES.

Take `N=C(N)NCCC[C@H](N)C(=O)O`: the binding result in test [1] and in [2] was “no” throughout.

Regarding `CNC(=N)N`, the apparent KD – broadly, the concentration giving half-maximal binding under the conditions of the assay – in test [1] (Figure 5 legend prints ±0.6) stood at 4100 ± 500 µM. For the same molecule, the EC50 (in general, the concentration needed to bring the measured effect to its halfway point) in test [2] is 2700 ± 700 µM.

Take `N=C(N)NN`: the “apparent KD” value in [1] was determined as 7500 ± 800 µM. Besides, the EC50 in test [2] is 3800 ± 500 µM.

For `N=C(N)N`, the binding result in test [3], in test [4], in test [6], in [7], in test [8] and in test [9] was “no” throughout. For the same molecule, the binding entry is “no” in [10]; “no” in [11]; “no” in test [12]; “no” in test [13]; “no” in test [14]; “weak” in [15]. Moreover, the “apparent KD” value is 190 ± 30 µM in [5] and 210 ± 20 µM in [1]. In addition, the 50% effective concentration (EC50) in test [2] is 260 ± 30 µM.

`NC(N)=O`: the binding entry in test [1] and in [2] was “no” each time.

The record behind these values is PMC7736828 (2020).
